Measured values as given in patent US6737383B1, “Herbicidal oxadiazolidines” (priority 1999, dated 2004).

Tests used:
crabgrass = experiment: Test B pre/postemergence crabgrass; assay type: in vivo, Digitaria sanguinalis
In short: (§1)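 Test chemicals in a non-phytotoxic solvent mixture with surfactant were sprayed preemergence onto planted seeds and postemergence onto plants 2 to 18 cm tall (1- to 4-leaf stage). After twelve to sixteen days in a greenhouse, injury was visually rated against untreated controls from 0 (no effect) to 10 (complete control).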

giant foxtail = experiment: Test B pre/postemergence giant foxtail; assay type: in vivo, Setaria faberii
In short: as §1

soybean = experiment: Test B pre/postemergence soybean; assay type: in vivo, Glycine max
In short: as §1

sugar beet = experiment: Test B pre/postemergence sugar beet; assay type: in vivo, Beta vulgaris
In short: as §1

[1] = Preemergence, Rate 62 g/ha, scale of 0 to 10 where 0 is no effect and 10 is complete control
[2] = Preemergence, Rate 250 g/ha, scale of 0 to 10 where 0 is no effect and 10 is complete control
[3] = Preemergence, Rate 500 g/ha, scale of 0 to 10 where 0 is no effect and 10 is complete control
[4] = Rate 125 g/ha, Postemergence, scale of 0 to 10 where 0 is no effect and 10 is complete control
[5] = Rate 125 g/ha, Preemergence, scale of 0 to 10 where 0 is no effect and 10 is complete control
[6] = Rate 250 g/ha, Postemergence, scale of 0 to 10 where 0 is no effect and 10 is complete control
[7] = Rate 500 g/ha, Postemergence, scale 0 to 10, 0 no effect, 10 complete control
[8] = Postemergence, Rate 31 g/ha, visual rating, scale 0 to 10 (0 no effect, 10 complete control)
[9] = Preemergence, Rate 31 g/ha, visual rating, scale 0 to 10 (0 no effect, 10 complete control)
[10] = Rate 62 g/ha, Postemergence, scale 0 to 10 (0 no effect, 10 complete control)

| SMILES | Crabgrass plant response rating (crabgrass; [1]) | Crabgrass plant response rating (crabgrass; [2]) | Crabgrass plant response rating (crabgrass; [4]) | Plant response rating, Crabgrass (crabgrass; [6]) | Giant foxtail plant response rating (giant foxtail; [1]) | Giant foxtail plant response rating (giant foxtail; [2]) | Giant foxtail plant response rating (giant foxtail; [4]) | Plant response rating, Giant foxtail (giant foxtail; [6]) | Soybean plant response rating (soybean; [1]) | Soybean plant response rating (soybean; [2]) | Soybean plant response rating (soybean; [4]) | Plant response rating, Soybean (soybean; [6]) | Sugarbeets plant response rating (sugar beet; [1]) | Sugarbeets plant response rating (sugar beet; [2]) | Sugarbeets plant response rating (sugar beet; [4]) | Plant response rating, Sugarbeets (sugar beet; [6]) | Crabgrass plant response rating (crabgrass; [10]) | Giant foxtail plant response rating (giant foxtail; [10]) | Soybean plant response rating (soybean; [10]) | Sugarbeets plant response rating (sugar beet; [10]) | other results |
| --- | --- | --- | --- | --- | --- | --- | --- | --- | --- | --- | --- | --- | --- | --- | --- | --- | --- | --- | --- | --- | --- |
| Cc1ccccc1-n1c(=O)on(C(=O)N(c2ccc(Oc3ccccc3)cc2)C(C)C)c1=O [Compound 268] | 0 | 0 | 0 | 0 | 0 | 0 | 0 | 0 | 0 | 0 | 0 | 0 | 0 | 0 | 0 | 0 | – | – | – | – | Plant response rating, Crabgrass (crabgrass; [3]): 0; Crabgrass plant response rating (crabgrass; [5]): 0; Crabgrass plant response rating (crabgrass; [7]): 0; Plant response rating, Giant foxtail (giant foxtail; [3]): 0; Giant foxtail plant response rating (giant foxtail; [5]): 0; Giant foxtail plant response rating (giant foxtail; [7]): 0; Plant response rating, Soybean (soybean; [3]): 0; Soybean plant response rating (soybean; [5]): 0; Plant response rating, Sugarbeets (sugar beet; [3]): 0; Sugarbeets plant response rating (sugar beet; [5]): 0 |
| CC(C)N(C(=O)n1oc(=O)n(CCCCF)c1=O)c1ccc(F)cc1 [Compound 289] | 2 | 4 | 5 | 9 | 10 | 10 | 5 | 7 | 0 | 0 | 3 | 4 | 2 | 8 | 0 | 0 | 3 | 2 | 2 | 0 | Crabgrass plant response rating (crabgrass; [8]): 0; Crabgrass plant response rating (crabgrass; [9]): 1; Crabgrass plant response rating (crabgrass; [5]): 3; Giant foxtail plant response rating (giant foxtail; [8]): 2; Giant foxtail plant response rating (giant foxtail; [9]): 9; Giant foxtail plant response rating (giant foxtail; [5]): 10; Soybean plant response rating (soybean; [8]): 0; Soybean plant response rating (soybean; [9]): 0; Soybean plant response rating (soybean; [5]): 0; Sugarbeets plant response rating (sugar beet; [8]): 0; Sugarbeets plant response rating (sugar beet; [9]): 0; Sugarbeets plant response rating (sugar beet; [5]): 6 |
| CCN(C(=O)n1oc(=O)n(C2CC2)c1=O)C1CCCCC1 [Compound 298] | 0 | 0 | 0 | 0 | 0 | – | 0 | 0 | 0 | 0 | 3 | 3 | 0 | 0 | 0 | 0 | 0 | 0 | 0 | 0 | Crabgrass plant response rating (0 to 10 scale) (crabgrass; Preemergence, Rate 125 g/ha): 0; Plant response rating, Crabgrass (crabgrass; [3]): 0; Giant foxtail plant response rating (0 to 10 scale) (giant foxtail; Preemergence, Rate 125 g/ha): 0; Soybean plant response rating (0 to 10 scale) (soybean; Preemergence, Rate 125 g/ha): 0; Plant response rating, Soybean (soybean; [3]): 0; Sugarbeets plant response rating (0 to 10 scale) (sugar beet; Preemergence, Rate 125 g/ha): 0; Plant response rating, Sugarbeets (sugar beet; [3]): 0 |
| Cc1cccc(C(C)(C)C)c1-n1c(=O)on(C(=O)N(c2ccccc2)C(C)C)c1=O [Compound 303] | 0 | 0 | 0 | 0 | 0 | 0 | 0 | 0 | 0 | 0 | 2 | 3 | 0 | 0 | 0 | 0 | 0 | 0 | 2 | 0 | Crabgrass plant response rating (0 to 10 scale) (crabgrass; Preemergence, Rate 125 g/ha): 0; Giant foxtail plant response rating (0 to 10 scale) (giant foxtail; Preemergence, Rate 125 g/ha): 0; Giant foxtail plant response rating (giant foxtail; [3]): 0; Soybean plant response rating (0 to 10 scale) (soybean; Preemergence, Rate 125 g/ha): 0; Soybean plant response rating (soybean; [3]): 0; Sugarbeets plant response rating (0 to 10 scale) (sugar beet; Preemergence, Rate 125 g/ha): 0; Sugarbeets plant response rating (sugar beet; [3]): 0 |
| CCc1cccc(CC)c1-n1c(=O)on(C(=O)N(c2ccc(F)cc2)C(C)C)c1=O [Compound 304] | 3 | 6 | 0 | 0 | 0 | 6 | 0 | 0 | 0 | 0 | 4 | 5 | 0 | 6 | 0 | 0 | 0 | 0 | 3 | 0 | Crabgrass plant response rating (0 to 10 scale) (crabgrass; Preemergence, Rate 125 g/ha): 4; Crabgrass plant response rating (crabgrass; [3]): 8; Giant foxtail plant response rating (0 to 10 scale) (giant foxtail; Preemergence, Rate 125 g/ha): 4; Giant foxtail plant response rating (giant foxtail; [3]): 6; Soybean plant response rating (0 to 10 scale) (soybean; Preemergence, Rate 125 g/ha): 0; Soybean plant response rating (soybean; [3]): 0; Sugarbeets plant response rating (0 to 10 scale) (sugar beet; Preemergence, Rate 125 g/ha): 1; Sugarbeets plant response rating (sugar beet; [3]): 6 |
| CC(C)N(C(=O)n1oc(=O)n(Cc2ccccc2-c2ccccc2)c1=O)c1ccc(F)cc1 [Compound 313] | 0 | 0 | 0 | 0 | 0 | 0 | 0 | 0 | 0 | 0 | 2 | 3 | 0 | 0 | 0 | 0 | 0 | 0 | 1 | 0 | Crabgrass plant response rating (0 to 10 scale) (crabgrass; Preemergence, Rate 125 g/ha): 0; Crabgrass plant response rating (crabgrass; [3]): 0; Giant foxtail plant response rating (0 to 10 scale) (giant foxtail; Preemergence, Rate 125 g/ha): 0; Giant foxtail plant response rating (giant foxtail; [3]): 0; Soybean plant response rating (0 to 10 scale) (soybean; Preemergence, Rate 125 g/ha): 0; Soybean plant response rating (soybean; [3]): 0; Sugarbeets plant response rating (0 to 10 scale) (sugar beet; Preemergence, Rate 125 g/ha): 0; Sugarbeets plant response rating (sugar beet; [3]): 0 |
